We go through 8 compounds from US10512700B2, “Radiohalide-labeled targeted diagnostics and therapeutics” (Memorial Sloan Kettering Cancer Center, priority 2014, dated 2019).

Like-named read-outs stand apart in the source and are kept apart here.

Data set [1] in a line: Plasma protein binding, Rapid Equilibrium Dialysis. The data set is classed as in vitro ADME, mouse. More on the design: fraction unbound at 4 h: dose or concentration left out as unconfirmed. As to conditions: 4 h at 37° C.; for % plasma free fraction: 10 μM in mouse serum; for Plasma protein binding: 500 μM in mouse serum. As to the method:
The plasma protein fraction was determined using the Rapid Equilibrium Dialysis Device System (LifeTechnologies, Grand Island, N.Y.) according to the manufacturer's protocol.
For each of the iodinated compounds, membrane dialysis was performed with 10 μM of the compound in mouse serum (500 μL) on one side of the membrane and PBS (750 μL) on the other side. The system was sealed with parafilm and incubated for 4 h at 37° C. on an orbital shaker set to 250 rpm. Thereafter, 400 μL of solution was taken from both sides, and samples were treated twice with an equal amount of AcN and vortexed to remove protein before HPLC analysis. After injection (100 μL), the compound peaks from each sample were then integrated, and the protein bound fraction was determined as % bound=[1−(Concentration buffer chamber/Concentration plasma chamber)]×100. The data was analyzed using Prism 6.0c (GraphPad Software, La Jolla, Calif.).
The system was sealed with parafilm and incubated for 4 h at 37° C. on an orbital shaker set to 100 rpm. Thereafter, 50 μL of solution was taken from both sides, and samples were treated with 300 μL of precipitation buffer (90/10 acetonitrile/water with 0.1% formic acid) and vortexed to remove protein before HPLC analysis. […] The data was analyzed using Prism 6.0c (GraphPad Software, La Jolla, Calif.).
For orientation: In equilibrium dialysis free small molecules cross a membrane that holds back macromolecules.

A short description of data set [2]: Chromatographic Hydrophobicity Index (CHI) and log PCHI determination. The data set is classed as physicochemical. As to conditions: for chromatographic logP: reverse phase HPLC, read-out: logPCHI. On the procedure:
Chromatographic Hydrophobicity Index (CHI) was determined according to the procedures reported in K. Valko et al, “Chromatographic Hydrophobicity Index by Fast-Gradient RP-HPLC: A High-Throughput Alternative to log P/log D”, Anal. Chem. 1997, 69:2022-29, incorporated by reference herein in its entirety. Briefly, a series of standards with known CHIs were analyzed with reverse phase HPLC. Retention times of the standards along with their known CHIs were plotted with Prism 6.0c software (GraphPad, La Jolla, Calif.). A line was fit to the data to create a calibration curve, which was then used to calculate the CHI of the test chemical entity based on the HPLC retention time.
The log PCHI value was determined according to K. Valko, 1997.

A further data set deals with U251 MG cells. Description: In vitro blocking study, competitive inhibition of PARP1i-FL uptake. As to conditions: 5 μM (10-fold excess) with PARP1i-FL 500 nM, 30 minutes. It is filed as cell-based, human. On the procedure: (§1) U251 MG or U373 MG (1×10^4 cells per well) cells were seeded into 12 wells each on a 96-well plate and cultured for 24 hours. […] Following incubation, cells were washed twice with media and twice with PBS and imaged with a Zeiss LSM 5Live confocal microscope (images not shown). Fluorescence intensity was then quantified from the images using ImageJ 1.47 u processing software (see FIG. 3).

For the next data set, the system named is U373 MG cells. Described as above. It is filed as cell-based, human. As to conditions: 5 μM (10-fold excess) with PARP1i-FL 500 nM, 30 minutes. As to the method: as §1
A further data set has as its target T1, PARP1 (Homo sapiens, UniProt P09874).
T1 construct: purchased Trevigen
The experiment in a line: IC50 determination, Universal PARP Colorimetric Assay Kit. It is filed as biochemical. As to conditions: Table 2, measured against PARP1. On the procedure:
Inhibition of PARP1 was measured using the Universal PARP Colorimetric Assay Kit (Trevigen®, Gaithersburg, Md.). IC50 values were calculated using Prism 6.0c software (GraphPad, La Jolla, Calif.).
All experiments were carried out in triplicate.

The conditions of data set [3]: reported for olaparib; cited from earlier work.

T1 sequence (P09874 whole entry, species assumed): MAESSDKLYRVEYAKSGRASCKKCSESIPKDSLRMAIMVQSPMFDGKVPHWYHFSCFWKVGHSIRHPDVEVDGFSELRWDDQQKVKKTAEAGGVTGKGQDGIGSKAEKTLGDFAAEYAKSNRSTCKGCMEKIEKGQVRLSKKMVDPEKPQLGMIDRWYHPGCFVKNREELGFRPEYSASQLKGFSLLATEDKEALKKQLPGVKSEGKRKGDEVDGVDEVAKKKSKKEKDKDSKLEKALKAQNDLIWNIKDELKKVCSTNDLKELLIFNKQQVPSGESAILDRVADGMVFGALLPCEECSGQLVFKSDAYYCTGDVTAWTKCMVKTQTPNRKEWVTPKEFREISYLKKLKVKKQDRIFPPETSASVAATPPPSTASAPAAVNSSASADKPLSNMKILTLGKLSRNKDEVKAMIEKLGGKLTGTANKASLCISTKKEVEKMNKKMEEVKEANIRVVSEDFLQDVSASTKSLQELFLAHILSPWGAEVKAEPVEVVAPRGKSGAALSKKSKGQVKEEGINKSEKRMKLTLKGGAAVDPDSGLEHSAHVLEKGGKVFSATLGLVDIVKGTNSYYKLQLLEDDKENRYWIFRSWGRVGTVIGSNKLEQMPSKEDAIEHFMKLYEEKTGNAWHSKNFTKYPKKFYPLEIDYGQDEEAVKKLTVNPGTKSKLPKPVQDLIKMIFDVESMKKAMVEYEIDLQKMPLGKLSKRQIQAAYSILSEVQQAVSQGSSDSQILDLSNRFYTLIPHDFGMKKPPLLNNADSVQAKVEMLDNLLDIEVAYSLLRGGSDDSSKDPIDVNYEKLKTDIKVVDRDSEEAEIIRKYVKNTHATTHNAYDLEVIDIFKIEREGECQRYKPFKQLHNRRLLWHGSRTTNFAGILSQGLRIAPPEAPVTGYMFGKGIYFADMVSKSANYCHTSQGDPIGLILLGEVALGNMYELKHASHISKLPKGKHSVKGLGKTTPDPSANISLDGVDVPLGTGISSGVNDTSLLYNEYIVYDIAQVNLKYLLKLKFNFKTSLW

Take `O=C(c1cccc(I)c1)N1CCN(C(=O)c2cc(Cc3n[nH]c(=O)c4ccccc34)ccc2F)CC1` [c-1 (^127I), 4-(4-fluoro-3-(4-(3-iodobenzoyl)piperazine-1-carbonyl)benzyl)-phthalazin-1(2H)-one]: the “% plasma free fraction” value in data set [1] amounted to 9.6 ± 1.5%.

For orientation: fraction unbound means the share of the substance not bound to proteins or other matrix. On to `O=C(c1ccc(F)cc1)N1CCN(C(=O)c2cc(Cc3n[nH]c(=O)c4ccccc34)ccc2F)CC1` [c-2 (^19F)], for which, in data set [2] (Table 3), the CHI is given as 57.5, the logPCHI was 2.15±0.41 and the chromatographic logP amounted to 2.15 ± 0.41. The same compound gave a Plasma protein binding in data set [1] of 63.9 ± 12.6%. Besides, the fraction unbound at 4 h in data set [1] (mouse, mouse serum) is 0.36. Also, the “reduction of fluorescence intensity in the nucleus” value (shortened to “reduction of fluorescence intensity”) in the data set on U251 MG cells is 80.0%±10.8%. The “reduction of fluorescence intensity” value in the data set with U373 MG cells is reported as 78.8%±10.4%.

As for `O=C(c1ccc(I)cc1)N1CCN(C(=O)c2cc(Cc3n[nH]c(=O)c4ccccc34)ccc2F)CC1` [c-2 (^127I), 4-(4-fluoro-3-(4-(4-iodobenzoyl)piperazine-1-carbonyl)benzyl)-phthalazin-1(2H)-one], in data set [1], the “% plasma free fraction” value was 11.5 ± 0.1%.

As usually defined, the IC50 is the point on the concentration scale where inhibition reaches its midpoint. Consider `O=C(Cc1cccc(I)c1)N1CCN(C(=O)c2cc(Cc3n[nH]c(=O)c4ccccc34)ccc2F)CC1` [c-3 (^127I), 4-(4-fluoro-3-(4-(2-(3-iodophenyl)acetyl)piperazine-1-carbonyl)-benzyl)phthalazin-1(2H)-one], for which, in data set [2] (Table 2), the CHI was 66.7 and the chromatographic logP turned out to be 2.7. Also, the “% plasma free fraction” value in data set [1] was found to be 7.0 ± 0.1%. At PARP1, the IC50 was 34 ± 3 nM.

As to `O=C(Cc1ccc(I)cc1)N1CCN(C(=O)c2cc(Cc3n[nH]c(=O)c4ccccc34)ccc2F)CC1` [c-4 (^127I), 4-(4-fluoro-3-(4-(2-(4-iodophenyl)acetyl)piperazine-1-carbonyl)-benzyl)phthalazin-1(2H)-one], in data set [2] (Table 2), the CHI is on record as 66.7 and the chromatographic logP turned out to be 2.7. Also, the “% plasma free fraction” value in data set [1] is listed as 5.0 ± 0.3%. The compound also registered an IC50 on PARP1 of 74 ± 5 nM.

With `O=C(CCc1cccc(I)c1)N1CCN(C(=O)c2cc(Cc3n[nH]c(=O)c4ccccc34)ccc2F)CC1` [c-5 (^127I), 4-(4-fluoro-3-(4-(3-(3-iodophenyl)propanoyl)piperazine-1-carbonyl)benzyl)phthalazin-1(2H)-one], in data set [2] (Table 2), the CHI amounted to 71.6 and the chromatographic logP was determined as 3. The “% plasma free fraction” value in data set [1] worked out at 7.8 ± 1.4%. The IC50 against PARP1 amounted to 107 ± 4 nM.

Regarding `O=C(CCc1ccc(I)cc1)N1CCN(C(=O)c2cc(Cc3n[nH]c(=O)c4ccccc34)ccc2F)CC1` [c-6 (^127I), 4-(4-fluoro-3-(4-(3-(4-iodophenyl)propanoyl)piperazine-1-carbonyl)benzyl) phthalazin-1(2H)-one], in data set [2] (Table 2), the CHI came out at 71.6 and the chromatographic logP was 3. In data set [1], the “% plasma free fraction” value was 4.7 ± 0.5%. At PARP1, this compound gave a half-maximal inhibitory concentration (IC50) of 47 ± 5 nM.

`O=C(c1cc(Cc2n[nH]c(=O)c3ccccc23)ccc1F)N1CCN(C(=O)C2CC2)CC1` [olaparib, 4-[3-(4-cyclopropanecarbonylpiperazine-1-carbonyl)-4-fluorobenzyl]-2H-phthalazin-1-one, reference compound] gave a Plasma protein binding in data set [1] of 65%. Moreover, the “reduction of fluorescence intensity” value in the data set on U251 MG cells was 69.6%±22.3%. Further, the “reduction of fluorescence intensity” value in the data set on U373 MG cells was 71.2%±20.0%. In addition, in data set [3], the CHI is given as 34.1 and the logPCHI was 0.8.
